Data set [1] deals with MN9D cells. Description: Chromatin condensation test for apoptosis (DAPI). Particulars: 250 μM, 12 h. It is filed as cell-based, mouse. As to the method: MN9D cells grown in glass-bottomed plates were treated with 250 μM MPP^+ or 4'I- MPP^+ for 12 h and then with 300 nM DAPI in KRB-HEPES for 15 min in the dark at 37 °C [24]. Then cells were rinsed and PBS was added to cover the cell layer. Increase in nuclear DAPI fluorescence (Ex/Em at 358/461 nm) due to chromatin condensation was observed using a Nikon ECLIPSE Ti-S inverted fluorescence microscope. The controls were treated similarly except that MPP^+ or 4'I-MPP^+ was omitted from the initial incubation medium.

Data set [2] deals with HepG2 cells. Briefly: Intracellular ATP levels. The class given is cell-based, human. Conditions: 100 μM, 6 h at 37 °C. As to the method: Cells grown in 12-well plates were treated with 100 μM MPP^+ or 4'I-MPP^+ in KRB-HEPES for 6 h at 37 °C. After the treatments, cells were suspended in 1 mL of ice-cold KRB-HEPES and 50 μL samples were withdrawn for protein quantification. The remaining cell suspensions were centrifuged for 3 min at 3,500 x g at 4 °C and the cell pellets were treated with 1 mL of lysis buffer (0.1 M Tris, 1% Triton X-100, pH 7.5) for 2 min and centrifuged at 3,500 x g for 3 min to remove the cell debris. The ATP contents of the supernatants were measured using a fluorometric ATP assay kit (BioVision, Milpitas CA, USA) following the manufacture’s guidelines. All ATP levels were normalized to the protein content of each sample.

For a further data set, the system named is MN9D or HepG2 cells. Description: Mitochondrial membrane potential depolarization (TMRM). The class given is cell-based. Conditions: 100 μM. As to the method: MN9D or HepG2 cells grown in glass-bottomed plates were treated with 50 nM TMRM (AnaSpec, Fremont CA, USA) in KRB-HEPES for 45 min in the dark. After mounting on the stage of a Nikon ECLIPSE Ti-S inverted fluorescence microscope, 15–20 ROIs with uniform fluorescence were selected and TMRM fluorescence at Ex/Em at 543/573 nm was recorded at 5 sec time intervals for 3 min. Then, MPP^+ or 4'I-MPP^+ was added to a final concentration of 500 or 100 μM, respectively and TMRM fluorescence measurements were continued for an additional 40 min for MPP^+ and 15 min for 4'I-MPP^+ at 15 sec time intervals. The background fluorescence was subtracted from the ROI fluorescence and averages of corrected data were used to estimate the magnitude of the mitochondrial membrane potential.

Data set [3] concerns HepG2 cells. Description: Cellular uptake of MPP+ and 4'I-MPP+ (HPLC-UV / fluorescence). The class given is cell-based, human. Conditions: 100 μM toxin, 40 min. As for the experimental part: Cells were seeded into 12-well plates at 0.25 x 10^6 cells/well and grown 2–3 days to about 70–80% confluency. The media was removed and a solution containing 100 μM MPP^+ or 4'I-MPP^+ in warm KRB-HEPES (or without Ca^2+ and with 1.4 mM EGTA) was added to each well and incubated at 37 °C for the desired period of time (see Figure legends for further details). After the incubations, the media were removed and cells were washed with ice-cold KRB-HEPES. Washed cells were suspended in 1.0 mL of ice-cold KRB-HEPES and 50 μL aliquots were withdrawn for protein determination. The remaining cell suspensions were centrifuged at 5000 x g at 4 °C for 5 min and the cell pellets were treated with 75 μL of 0.1 M HClO4. The coagulated proteins were pelleted by centrifugation at 13,200 x g at 4 °C for 8 min and the MPP^+ or 4'I-MPP^+ contents of the supernatants were determined by C18-reversed-phase HPLC-UV (HPLC-UV) as previously described using standard curves constructed from authentic standards. The standard curves for HPLC-UV quantifications were constructed using authentic samples of MPP^+ and 4'I-MPP^+ under the same HPLC-UV separation conditions (S1 Fig).
To quantify 4'I-MPP^+ uptake by fluorescence, MN9D or HepG2 cells grown in glass bottomed plates, washed, and reconstituted with KRB-HEPES (1.0 mL), pH 7.4, and mounted on the stage of a Nikon ECLIPSE Ti-S inverted fluorescence microscope. […]

Data set [4] deals with MN9D cells. Briefly: Intracellular ROS (DCFH-DA). Conditions: 100 μM, 1 h at 37 °C. It is filed as cell-based, mouse. As for the experimental part: Cells grown in 12-well plates were incubated with 10 μM DCFH-DA in KRB-HEPES for 1 h. […] After the incubations, cells were washed, harvested, solubilized with 0.1 M Tris buffer (pH 7.5) containing 1% Triton X-100, and cell debris were removed by centrifugation at 13,200 x g for 8 min at 4 °C. The content of ROS-oxidized DCFH product, 2',7'-dichlorofluorescein (DCF) in the supernatants were quantified by fluorescence (Ex/Em 488/524 nm). The data were normalized to the protein contents of individual samples. ROS productions in DCFH-DA (50 μM) loaded 250 μM 4'I-MPP^+ treated (4 h) live MN9D cells were visualized by confocal fluorescence microscopy at Ex/Em 488/524 nm using a Leica TCS SP5II microscope.

Data set [5] has as its system HepG2 cells. Briefly: MTT cell viability assay. The class given is cell-based, human. As to the method: Cell viability was determined by the MTT [3-(4,5-dimethylthiazol-2-yl)-2,5-diphenyltetrazolium bromide)] assay. Briefly, cells were seeded on 96-well plates and allowed to grow to about 70–80% confluence. Prior to the experiment, culture media was replaced with KRB-HCO3^- containing desired concentrations of MPP^+ or 4'I-MPP^+ and incubated for 16 h at 37 °C. After the incubation, 10 μL of 5 mg/mL MTT solution was added to each well and incubated for 2 h at 37 °C. The resulting formazan was solubilized by the addition of 210 μL detergent solution [50% DMF/H2O (v/v), 20% SDS (w/v)] followed by incubation at 37 °C for 12 h. The cell viabilities were determined by quantifying solubilized formazan by measuring the difference in the absorbance at 570 nm and 650 nm. Results were expressed as % viability of MPP^+ or 4'I-MPP^+ treated cells with respect to control cells, which were treated under the same conditions except in the absence of the MPP^+ or 4'I-MPP^+.
For orientation: Formazan colour is commonly taken as a measure of viable cells.

Results on 1 molecule are retold here after PMC6107127, “Characteristics of the mitochondrial and cellular uptake of MPP^+, as probed by the fluorescent mimic, 4'I-MPP^+” (PLoS ONE, 2018).

Molecules are shown by their SMILES.

With `C[n+]1ccc(-c2ccc(I)cc2)cc1` [4'I-MPP^+, 1-methyl-4-(4'-iodophenyl)pyridinium], the “apoptotic cell death (chromatin condensation)” value in the data set with MN9D cells [1] is on record as “cause apoptotic MN9D cell death”. The “effect on intracellular ATP levels” value in the data set with HepG2 cells [2] is on record as “deplete intracellular ATP levels”. Further, in the data set with MN9D or HepG2 cells, the “time to depolarize the mitochondrial membrane by 20–50%” value is given as 20 min. Also, in the data set with HepG2 cells [3], the “cellular uptake in 40 min” value is recorded as 1.4 nmoles/mg of protein. Further, in the data set with MN9D cells [4], the “effect on ROS production” value is reported as “increase ROS production”. Besides, the HepG2 cell toxicity entry in the data set with HepG2 cells [5] (MPP+ at 0–1000 μM, 4'I-MPP+ at 0–200 μM, 16 h) is on record as “resistant”. In addition, in the data set on HepG2 cells [5] (rough estimates, data not shown), the “concentration above which toxic to HepG2 cells” value is listed as “above 250 μM”.
